Tests used:
[1] = system: Long-Evans rats, compressed facial nerve; experiment: Rat facial nerve compression model; assay type: in vivo; settings: p.o. about 20 mg/kg twice a day for 15 days after surgery; compared to vehicle and internal control; FIG. 1
Description: In this model, compressing the facial nerve causes paralysis of the whisker muscle on that side of the face. The untreated facial nerve on the other side functions as an internal control. […] The whisker movement recovery rate on the paralyzed side compared to the vehicle and internal control is shown in this FIGURE.
Long-Evans rats are anesthetized under ketamine (60 mg/kg)/xylazine (6mg/kg). The facial nerve is exposed and mechanically compressed with forceps near the stylomastoid foramen unilaterally with the opposite, non-lesioned side serving as an internal control. […] Rats received test compound p.o. at about 20 mg/kg twice a day for 15 days after the surgery. Control rats received vehicle only. Three to eight rats are tested in each group. Restoration of whisker movement after the treatment with compounds of the present invention is recorded at different post-operative time points daily, up to two weeks, and is shown in FIG. 1.

[2] = target: T1, α-4,β-2 nicotinic acetycholine receptor (α4β2nAChR) (Rattus norvegicus, UniProt P09483+P12390); experiment: Nicotinic acetylcholine receptor binding assay (3H-cytisine)
T1 construct: crude synaptic membrane preparations from rat cerebral cortex, striatum and hippocampus; from tissue; host or cells: rat cerebral cortex, striatum and hippocampus (crude synaptic membranes, P2 fraction)
Description: Binding of ^3H-cytisine to neuronal nicotinic acetylcholine receptors is accomplished using crude synaptic membrane preparations from rat cerebral cortex, striatum and hippocampus. Either fresh or frozen membranes are homogenized in 50 volumes of 10 mM HEPES (N-2-hydroxyethylpiperazine-N′-2-ethanesulfonic acid, pH 7.4) and centrifuged at 42,000 g. The P2 fraction is resuspended in 40 volumes of 10 mM HEPES and centrifuged at 42,000 g. This step is repeated and the P2fraction was resuspended in 25 volumes (e.g., 1 g of tissue into 25 mL) of a medium comprised of Na^+-HEPES buffer (10 mM, pH 7.4), 5 mM MgCl2, 0.01% powdered bovine serum albumin (BSA) and 100 mM NaCl. […] The binding reaction is terminated by filtration using a Brandel Cell Harvester; the amount of bound ^3H-cytisine for each sample is quantitated using a Wallac LKB 1205 Betaplate liquid scintillation counter. […] Nonspecific binding is determined using 10 μM (+)-epibatidine to block all binding of ^3H-cytisine to the α-4,β-2 nicotinic acetycholine receptor (α4β2nAChR). The activity of each test compound is calculated as follows: after correcting for nonspecific binding, the percent inhibition of specific binding (total binding minus nonspecific) is calculated. […] The IC50 values are calculated by performing a nonlinear regression analysis of the data using a standard regression program.

[3] = system: Primary Rat Hippocampal Cells; experiment: Neurite outgrowth assay in primary rat hippocampal cells; assay type: cell-based; settings: MAP-2 immunofluorescence, active if greater than mean DMSO-treated control
Description: Hippocampal cells are dissected from the brains of embryonic day 18 rat pups and dissociated with trypsin (1 mg/mL) and trituration. Cells are seeded at 30,000 cells/well in 96-well plates filled with 100 μL MEM and 10% FBS. At 7 days in culture, cells are fixed with 4% paraformaldehyde and immuno-fluorescence is performed.
(§1) Cultures are incubated with normal horse serum (1:50; Vector Labs) for about 20 min, rinsed and then incubated with primary antibody, microtubule associated-protein 2 (anti-mouse MAP-2; 1:1000; Chemicon) for about 2 h at about RT. Following primary antibody, cultures are rinsed and incubated with fluorescein anti-mouse IgG (rat absorbed; 1:50; Vector Labs) for about 1 h. After fluorescein incubation, the cultures are rinsed and read in PBS on a fluorescent plate reader (excitation: 485 nm; emission: 530 nm). […] The response to test compound is reported as percent of DMSO-treated control.

[4] = system: Dorsal Root Ganglion (DRG); experiment: Dorsal Root Ganglion (DRG) culture, neurite outgrowth; assay type: cell-based, rat; set-up: key: + = Positive results for each experiment; − = Negative results for each experiment; settings: neurite outgrowth from DRG, test compound 50-250 nM, days 1-5; positive if neurites of ≧1 diameter of the DRG; one symbol per experiment
Description: Dorsal Root Ganglion (DRG) Culture
DRG are dissected from newborn or 1-day-old CD rats and placed into PBS on ice. After rinsing twice with sterile plating medium, DRG are transferred to empty wells of a 6-well plate coated with polyomithine/laminin (Becton Dickinson Labware) using #7 curved forceps. Three ml/well of plating medium are then added very gently, so as not to disturb the DRG. Plating medium is Leibovitz's L-15 medium (Gibco), plus 0.6% glucose, 33 mM KCl, 10% FCS, 10 mM Hepes and penicillin/streptomycin/glutamine. After overnight incubation at about 37° C. in 5% CO2, this medium is replaced with 3 mL/well of assay medium [Leibovitz's L-15 medium plus 0.6% glucose, 1% FCS, 1% N-2 supplement (Gibco), 10 μM ara-C, 10 mM Hepes, and penicillin/streptomycin/glutamine] containing either vehicle (DMSO, 1/200,000), positive control (2-4 ng/mL NGF) or test compound (50-250 nM). All media are prepared fresh daily. DRG are microscopically examined for neurite outgrowth on days 1-5.

[5] = system: Human M17 Neuroblastoma Cells; experiment: Neurite outgrowth assay in human M17 neuroblastoma cells; assay type: cell-based; settings: MAP-2 immunofluorescence, active if greater than mean DMSO-treated control
Description: M17 human neuroblastoma cells are cultured in 1:1 ratio of EMEM and Ham's F12 with 1×NEM and 10% FBS. The culture media contains 1×PSN antibiotic and is exchanged every other day, and the cells are passed in log phase near confluence.
as §1

T1 sequence (P09483 31-630): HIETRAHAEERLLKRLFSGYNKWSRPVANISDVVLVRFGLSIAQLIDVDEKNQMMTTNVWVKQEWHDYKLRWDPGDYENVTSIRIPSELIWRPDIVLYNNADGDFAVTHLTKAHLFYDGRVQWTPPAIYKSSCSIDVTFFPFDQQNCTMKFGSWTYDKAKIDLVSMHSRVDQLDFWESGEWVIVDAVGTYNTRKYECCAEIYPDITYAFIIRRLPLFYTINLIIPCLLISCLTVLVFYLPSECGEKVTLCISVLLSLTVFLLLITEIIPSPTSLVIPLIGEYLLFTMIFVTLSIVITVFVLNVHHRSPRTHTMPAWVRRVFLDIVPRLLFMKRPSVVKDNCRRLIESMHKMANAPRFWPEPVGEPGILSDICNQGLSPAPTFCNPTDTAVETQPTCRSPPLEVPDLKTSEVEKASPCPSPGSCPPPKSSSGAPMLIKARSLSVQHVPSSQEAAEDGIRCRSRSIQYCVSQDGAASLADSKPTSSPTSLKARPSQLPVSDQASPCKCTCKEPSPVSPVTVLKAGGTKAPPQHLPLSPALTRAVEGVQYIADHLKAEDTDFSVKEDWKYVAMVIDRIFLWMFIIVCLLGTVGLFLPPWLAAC
T1 sequence (P12390 25-500): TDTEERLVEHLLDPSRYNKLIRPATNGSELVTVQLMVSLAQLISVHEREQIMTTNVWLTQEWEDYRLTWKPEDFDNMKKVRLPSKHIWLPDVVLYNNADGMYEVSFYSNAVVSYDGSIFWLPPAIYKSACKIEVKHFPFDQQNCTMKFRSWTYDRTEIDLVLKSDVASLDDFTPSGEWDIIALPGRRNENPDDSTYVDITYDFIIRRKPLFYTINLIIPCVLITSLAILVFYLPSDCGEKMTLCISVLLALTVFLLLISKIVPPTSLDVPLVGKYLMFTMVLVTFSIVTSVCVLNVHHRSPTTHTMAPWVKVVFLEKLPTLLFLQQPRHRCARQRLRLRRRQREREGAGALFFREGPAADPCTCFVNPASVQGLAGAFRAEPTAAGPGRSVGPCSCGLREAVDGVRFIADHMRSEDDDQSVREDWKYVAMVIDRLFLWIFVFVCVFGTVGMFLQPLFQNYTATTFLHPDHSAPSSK

With `CCC(C)(C)C(=O)C(=O)N1CCCC1c1nnc([C@@H]2CCCN2C(=O)C(=O)C(C)(C)CC)o1` (some centres unmarked) [Compound 30] the “Restoration of whisker movement on the paralyzed side” value [1] was “restored more rapidly” and the melting point was 123 to 124 °C.
With `c1cncc(OCc2csc([C@@H]3CCCN3)n2)c1` [Compound 17] the IC50 [2] was 0.0638 µM.
For `CCC(C)(C)C(=O)C(=O)N1CCC[C@@H]1C(=O)NNC(=O)[C@H]1CCCN1C(=O)C(=O)C(C)(C)CC` [Compound 63], the “Rat Hippocampal Cell Response” value [3] was 110% of DMSO-treated control.
In the case of `O=C(C(=O)N1CCCC1c1nnc([C@@H]2CCCN2C(=O)C(=O)C2CCCCC2)o1)C1CCCCC1` (some centres unmarked) [Compound 49], the melting point is reported as 132 to 133 °C.
With `c1cncc(OCc2ncoc2[C@@H]2CCCN2)c1` [Compound 6] the IC50 [2] was 0.801 µM.
In the case of `CCC(C)(C)C(=O)C(=O)N1CCC[C@H]1C(=O)NNC(=O)[C@@H]1CCCN1C(=O)C(=O)C(C)(C)CC` [Compound 24], the DRG [4] is reported as “+ and −”.
For `CCC(C)(C)C(=O)C(=O)N1CCC[C@H]1c1nc(COc2cccnc2)cs1` [Compound 19], the “M17 Cell Response” value [5] was 110% of DMSO-treated control.
